# Results reported in patent publication US4143055A, “2,4,6-Trisubstituted-2,3-dihydro-benzofuran derivatives” (Gruppo Lepetit S.p.A., priority 1978, dated 1979).
# Assays:
# [1] = Acute oral toxicity in rats (LD50, Lichtfield and Wilcoxon); conditions: rat, in vivo, rats p.o. (table)
# Description: The toxicities were determined according to Lichtfield and Wilcoxon, Journ. Pharm. Expt. Ther., 96, 99, 1949.
# [2] = system: adjuvant induced arthritis; experiment: Adjuvant induced arthritis test in rats; assay type: in vivo; conditions: for % reduction of the volume of the hind paws over the controls: rats p.o., Dose 200 mg/kg
# Text: However, the most important pharmacological aspect of the compounds of the present invention is that they are effective also in the adjuvant induced arthritis test in rats. Said test is absolutely meaningful in that adjuvant arthritis is one of the best pharmacological parameters with which a pharmacologist can investigate compounds as to their possible antinflammatory activity, owing to the parallelism of effects existing between it and some articulation diseases observed in humans (see Pearson, C. M., Arthritis and allied conditions, page 119, Lea and Febiger Publ., 1967 and Pearson, C. M., J. Chronic Diseases, 16, 863, 1963).
# The adjuvant induced arthritis test was performed as described by B. B. Newbould in Brit. Jour. Pharmacol., 21, 127, (1963). The measure of effectiveness of the compounds in this test is given by their ability in reducing the volume of the hind paws of the laboratory animals. […] The obtained results, which are summarized in the following table, were obtained by testing the compounds at a dosage corresponding to 1/5 of their LD50.
# [3] = system: carrageenin induced edema; experiment: Carrageenin induced edema in the rat paw; assay type: in vivo; conditions: dosage around 1/5 of its LD50
# Description: (§1) The antiinflammatory activity was ascertained by means of several testing methods; in one, the ability of the compounds of the invention to reduce the edema induced in the rat paw by injection of carrageenin was evaluated and the test was performed according to the methodology described by C. A. Winter et al. in Proc. Soc. Exptl. Biol. Med. 111, 544, (1962). In another it was investigated the reduction by the test compounds of the weight of the granuloma formed on a cotton pellet implanted subcutaneously in a rat, following the method described by Meier et al. in Experientia 6, 469, (1950).
# (§2) Representative experiments have shown that the compounds of Example 11, namely 2,3-dihydro-6-methoxy-N,2-dimethyl-4-benzofuranamine causes a reduction of the carrageenin induced edema of around 70 percent over the controls even when it is administered at an absolutely safe dosage i.e., around 1/5 of its LD50. In the granuloma cotton pellet test the same compound at the same dosage reduces the weight of the granuloma of more than 40 percent again over the controls.
# [4] = system: granuloma formed on a cotton pellet implanted subcutaneously; experiment: Granuloma cotton pellet test; assay type: in vivo; conditions: rat; same dosage, around 1/5 of its LD50
# Description: as §1, §2
smiles,measurement,setting,value
"CNc1cc(OC)cc2c1CC(C)O2 (stereo not drawn) [Example 11, 2,3-dihydro-6-methoxy-N,2-dimethyl-4-benzofuranamine]",LD50,[1],2800 mg/kg
same,% reduction of the volume of the hind paws over the controls,[2],36%
same,activity in the adjuvant induced arthritis test compared with acetylsalicylic acid,"[2]; rats, dosage corresponding to 1/5 of their LD50",significantly more active
same,reduction of the carrageenin induced edema over the controls,[3],around 70%
same,reduction of the weight of the granuloma over the controls,[4],more than 40%
"CC(=O)Oc1ccccc1C(=O)O [acetylsalicylic acid, reference compound]",% reduction of the volume of the hind paws over the controls,[2],25%
